We go through 1 compound from patent publication US10725042B2, “Methods of diagnosing and treating cancer” (Case Western Reserve University, priority 2012, dated 2020).

The test system of assay [1] is A549 lung cancer xenografts. The assay is described as follows: A549 xenograft tumors in nude mice. It is filed as in vivo. Conditions: A549 tumours; pemetrexed 150 mg/kg, MX 4 mg/kg, i.p. daily for 5 days. Here is the method: (§1) H460 or A549 tumor cells (5×10^6) were injected into bilateral flanks of female athymic NCr (nu/nu) mice (6 weeks old). When the tumor volumes reached 100-150 mm3, mice were divided into control and treatment groups (6-9 mice/group). Nude mice carrying tumors were treated with pemetrexed (150 mg/kg) alone, MX (4 mg/kg) alone or the combination of the two agents, by daily intraperitonial injection (i.p.) for 5 consecutive days. Tumor measurements were taken every 2 days. Tumor responses were quantified by tumor volume.

For assay [2], the system named is AP sites in DNA of H460 cells. The assay is described as follows: AP site assay (ARP), H460 cells. The class given is cell-based, human. Conditions: pemetrexed 0-400 nM, MX 6 mM, 24 hrs. Here is the method: The number of AP sites was measured using ARP (aldehyde reactive probe) reagent. The assay was performed as previously described. Briefly, cells (2×10^6) were collected after drug treatment and DNA was extracted. DNA (10 μg) was incubated with 15 μl of 1 mM ARP (Dojindo Laboratories, Kumamoto, Japan), and then precipitated and washed with ice-cold ethanol. The ARP-labeled DNA was then heat-denatured at 100° C. for 5 min, quickly chilled on ice and mixed with an equal volume of 2 M ammonium acetate. The DNA was then immobilized on a BA-S 85 nitrocellulose membrane (Schleicher and Schuell, Dassel, Germany) using a minifold II vacuum filter device (Schleicher and Schuell, Dassel, Germany). The membrane was incubated with 0.25% BSA-PBS containing streptavidin-conjugated horseradish peroxidase (BioGenex, SanRamon, Calif.) at room temperature for 40 min with gentle shaking. ARP-labeled AP sites were visualized by chemiluminescence (Amersham Corp, Piscataway, N.J.) followed by quantitative densitometry using NIH Image J software.

For assay [3], the system named is DLD1/UDG−/− cells. Description: Cell cycle analysis, UDG−/− cells. It is filed as cell-based, human. The settings on record: pemetrexed 25 nM. As to the method:
For cell cycle analysis, 10^6 cells (DLD1/UDG^+/+ and DLD1/UDG^−/−) were plated in 100-mm tissue culture dishes and exposed to pemetrexed (25 nM). After 6, 24 and 72 h of culture, cells were fixed with 80% methanol and washed with ice-cold 1% BSA/PBS. DNA was stained with 20 μg/mL propidium iodide (Sigma-Aldrich) and 2.5 μg/mL of DNase-free RNase A (Roche). The DNA fluorescence of propidium iodide-stained cells was measured with an Elite ESP flow cytometer/cell sorter (Coulter, Miami, Fla.).

The subject of assay [4] is uracil in DNA of UDG+/+ cells. The assay is described as follows: Uracil in DNA by HPLC/MS/MS, UDG+/+ cells. It is filed as cell-based, human. The settings on record: pemetrexed 10 μM, 6-72 hr. Here is the method: UDG^−/− and UDG^+/+ cells were exposed to pemetrexed (10 μM) or 5-fluorouracil (10 μM) for 6, 24, 48 and 72 hrs. At indicated time points, cells were harvested and genomic DNA was extracted by phenol/chloroform. Forty μg of DNA were incubated with 10 U of purified UDG (New England Biolabs) in 60 μL of reaction buffer at 37° C. for 2 hrs. The reaction products were dried at 35° C. in a Turbovap under a stream of nitrogen and reconstituted in 150 μL 90% acetonitrile. The analyte was retained by an Atlantis Hilis Silica analytical column (2.1×100 mm, 3.5 μM) and eluted isocratically by a mixture of 90% acetonitrile and 10% 2.0 mM ammonium formate at a flow rate of 0.2 ml/min. The detection was done by an API 3200 MS/MS mass spectrometer.

The test system of the next assay is H1975 wt tumors. Description: H1975 wt xenografts in NOD-SCID mice. It is filed as in vivo. Here is the method: Tumor cells in early passage (5×10^6) were injected into bilateral flanks of female NODSCID mice (6 weeks old). When tumor volumes reached 100 mm3, mice were divided into control (n=4) and treatment (n=6) groups. Mice bearing tumors were treated with pemetrexed (150 mg/kg) or 100 μl sterile PBS (control) by daily intraperitoneal injection (IP) for 5 consecutive days. Tumor measurements were taken every 2 days and response was quantified by tumor volume.

For another assay, the system named is A549 cells. Description: Clonogenic survival assay, A549 cells (Example 1). It is filed as cell-based. Conditions: Homo sapiens, read-out: IC50 values for pemetrexed. Here is the method: (§2) Tumor cells (500-2000/dish) were plated and treated with pemetrexed (0-400 nM), 5-fluorouracil (0-20 μM), temozolomide (0-1500 μM), or cisplatin (0-40 μM). After 7 days, surviving colonies were stained with methylene blue for 30 min at room temperature and the colonies containing more than 50 cells were counted to generate survival curves.

The test system of the next assay is A549 parental cells. Description: Colony survival assay, A549 parental cells (Example 2). The class given is cell-based. Conditions: Homo sapiens, read-out: pemetrexed IC50. Here is the method:
(§3) For cells in suspension, colony survival was determined by crystal violet staining of colonies formed after 10-day exposure of 5×10^3 cells to pemetrexed in soft agar. For adherent cells, colony survival was determined by methylene blue staining of colonies formed after 10-day exposure of 100 cells to pemetrexed in 6-well culture dishes. Only colonies containing ≥50 cells were counted. Data points represent percent of colonies relative to untreated control averaged over 3 experiments.

For assay [5], the system named is DLD1/UDG−/− cells. The assay is described as follows: Colony survival (clonogenic) assay, UDG−/− cells. It is filed as cell-based, human. Here is the method:
Recombinant virus was grown in 293T cells and subsequently used to infect DLD1 cells. Selection of positively transfected clones was achieved by the addition of G418 to the culture medium. A second infection of transfected clones with Cre-recombinase adenovirus caused excision of the neomycin resistance cassette. Dflag cell line was produced by transfection of UDG expression vector in UDG^−/− cells to restore UDG activity.
as §2

For another assay, the system named is H1975 cells. The assay is described as follows: Colony survival assay, H1975 parental cells. It is filed as cell-based. Conditions: Homo sapiens, NCI-H1975, read-out: pemetrexed IC50. Here is the method:
as §3

For the next assay, the system named is H460 xenografts. Description: H460 xenograft tumors in nude mice. The class given is in vivo. The settings on record: pemetrexed 150 mg/kg, MX 4 mg/kg, i.p. daily for 5 days. As to the method: as §1

A word on the IC50: it is the point on the concentration scale where inhibition reaches its midpoint. As to `Nc1nc2[nH]cc(CCc3ccc(C(=O)N[C@@H](CCC(=O)O)C(=O)O)cc3)c2c(=O)[nH]1` [pemetrexed], the antitumour activity entry (in [1]; with H460 xenografts (H460 tumours)) was “moderately sensitive” each time. For the same compound, the “ARP-detected AP sites” value in [2] was “increased as the concentration of pemetrexed increased”. Besides, the “cells arrested in S-phase” value in the assay with DLD1/UDG−/− cells [3] (6 hr) is on record as approximately 25%; in the assay with DLD1/UDG−/− cells [3] (24 hr) it was 36%. The “cells in S-phase” value in the assay on DLD1/UDG−/− cells [3] (72 hr) is 35%. For the same compound, the “cells undergone apoptosis (subG1)” value with DLD1/UDG−/− cells [3] (72 hr) was approximately 22%. The “uracil detected in DNA” value in assay [4] was “very low”. Besides, the “tumors smaller than untreated controls” value in the assay on H1975 wt tumors (H1975 wild type tumors, day 20, pemetrexed 150 mg/kg IP x5) is 37.8%. Moreover, the tumor quadrupling time in the assay on H1975 wt tumors (H1975 wt tumors, pemetrexed 150 mg/kg IP, 5 daily injections) amounted to 9.68 ± 0.31 days. Besides, the IC50 in the assay with A549 cells was found to be 1200 nM; with A549 parental cells, 416 nM; in the assay on DLD1/UDG−/− cells [5] (Homo sapiens, DLD-1, UDG−/− cells, interpolated from dose-response survival curves, read-out: IC50 value for pemetrexed), 20 nM; in the assay with H1975 cells, 777 nM. Also, the “sensitivity of UDG−/− cells relative to UDG+/+ cells” value in the assay on DLD1/UDG−/− cells [5] (UDG−/− vs UDG+/+) is on record as 10 times. Moreover, the mean tumour volume with H460 xenografts (H460 xenografts at 15 days, PBS control 2100±106) came to 1726±176 mm3.
